In patent US20030054990A1, “Methods of using neural thread proteins to treat tumors and other conditions requiring the removal or destruction of cells” (Nymox Pharmaceutical Corporation, priority 2001, published 2003):
Several values for one entry are separate records, joined by “and”; a condition that tells them apart may be missing. Equal values may be shown once.

Experiments:
Format in all cases: cell-based
[1] = MTT assay, cytotoxicity in glioma cells; conditions: glioma cells (ATCC), per cent of negative control, Tamoxifen 100 μM, AD7C-NTP 100-1000 ng/ml, read-out: Percent Of Viable Cells
Method: (§1) Cryopreserved glioma and neuroblastoma cells were acquired from the American Type Culture Collection (ATCC), Virginia. Cells were thawed and diluted in suspension media and centrifuged at 700 rpm for 7 minutes at 4° C. Cell pellets were then resuspended in CACO-2 media and cultured in standard 75 or 175 cm^2 flasks at 37° C., 5% CO2 until approximately confluent. The cells were then trypsinized and resuspended in CACO-2 media to achieve a final cell density of 1.5×10^5 cells/ml. 50 μl aliquots per sample were then added per well to 96 well plates.
(§2) For Experiment I, 50 μl of either PBS (phosphate buffered solution) (negative control), 100 μM tamoxifen in phosphate buffered saline PBS (positive control), or test article were added to each sample culture.
(§3) For Experiment II, 1 mM tamoxifen in DMSO (dimethylsulfoxide) was diluted to 100 μM concentration in CACO-2 media, and 100 μl per well was added to positive control wells. A vehicle control consisting of 1% DMSO in CACO-2 media was also added to this experiment. Other negative controls consisted of human and bovine serum albumin and other nontoxic polypeptides.
(§4) An MTT assay is a sensitive assay for the measurement of cell proliferation based upon the reduction of the tetrazolium salt 3,[4,5-dimethylthiazol-2-yl]-2,5-diphenyltetrazolium bromide (MTT).
(§5) Following incubations with control or test substances, media was aspirated and 100 μl MTT was added to each well. Plates were then incubated for 3 hours at 37° C., 5% CO2. MTT was then replaced with acidified isopropanol (0.4 N HCI) and the plates were stored overnight at 4° C., covered. Plates were then agitated gently for 1 minute on a rotary shaker and the difference between emission absorbance of 570 nm and background absorbance of 650 nm was measured spectrophotometrically on an automated plate reader.
(§6) Neuroblastoma and glioma cells were incubated for 24 hours following treatment with test materials or control solutions. MTT was added to all cultures at this time. Results are expressed as means absorbance differences and represented as per cent of negative control and are shown in Table 1 (cytotoxicity in glioma cells) and Table 2 (cytotoxicity in neuroblastoma cells).
(§7) Glioma cells and neuroblastma cells were used for this experiment. MTT was added to the plates following a 24 hour incubation with control or test solutions. Other plates were replenished with fresh media, control, or test solution at 24 hours and then read 3 days later. Results are expressed as mean absorbance differences and as per cent of negative control and are shown in Table 3 (glioma cells) and Table 4 (neuroblastoma cells).

glioma cells = experiment: MTT assay, cytotoxicity in glioma cells; conditions: Tamoxifen 100 μM, AD7C-NTP 100-1000 ng/ml; for ABS 570-650 Sample: single replicate
Method: as §1, §2, §3, §4, §5, §6, §7

[2] = MTT assay, cytotoxicity in neuroblastoma cells; conditions: neuroblastoma cells (ATCC), per cent of negative control, Tamoxifen 100 μM, AD7C-NTP 100-1000 ng/ml, read-out: Percent Of Viable Cells
Method: as §1, §2, §3, §4, §5, §6, §7

neuroblastoma cells = experiment: MTT assay, cytotoxicity in neuroblastoma cells; conditions: Tamoxifen 100 μM, AD7C-NTP 100-1000 ng/ml; for Sample (absorbance difference): single replicate
Method: as §1, §2, §3, §4, §5, §6, §7

In the case of CC/C(=C(\c1ccccc1)c1ccc(OCCN(C)C)cc1)c1ccccc1 [PC (Tamoxifen), tamoxifen], the viability at 24 h, 100 µM ([1]; 24 hrs) is reported as 28%, the viability at 4 days, 100 µM ([1]; 4 days) is reported as 19% and the “ABS 570-650 Mean” value (glioma cells; 24 hrs) is reported as 0.015. The “ABS 570-650 Sample” value (glioma cells; 24 hrs) was 0.017 and 0.012, the “ABS 570-650 Mean” value (glioma cells; 4 days) was 0.015 and the “ABS 570-650 Sample” value (glioma cells; 4 days) was 0.018 and 0.012. The viability at 24 h, 100 µM ([2]; 24 hour incubation) was 14%, the viability at 4 days, 100 µM ([2]; 4 day incubation) was 25% and the “Mean (absorbance difference)” value (neuroblastoma cells; 24 hour incubation) was 0.010. The “Sample (absorbance difference)” value (neuroblastoma cells; 24 hour incubation) was 0.010 and 0.009, the “Mean (absorbance difference)” value (neuroblastoma cells; 4 day incubation) was 0.019 and the “Sample (absorbance difference)” value (neuroblastoma cells; 4 day incubation) was 0.016.
